The subject of the experiment is hamster 263K scrapie. Also noted: species or system transgenic mice over-expressing the hamster PrP-sen (Tg7). The conditions noted are these: in vivo.

Regarding Phthalocyanine tetrasulfonate [PcTS], the “animals surviving a minimum of 200 days” value worked out at 60%; the “increase of survival times, late treatment” value is listed as “one week”; the “survival longer than untreated controls” value is reported as “approximately 120 days”; the “survivors at >170 Dpi” value is reported as 80%.

The values above are taken from patent publication US6632808B1 (priority 1998, dated 2003).
